According to patent US11684682B2, “Chelating AAZTA conjugates and complexes thereof” (BRACCO IMAGING S.P.A., priority 2018, dated 2023):
Read-outs that look alike come from different tables or passages of the source. Each block holds one compound with its values, some of them ahead of it.

Assays:
[1] = Equilibrium study of Bi(AAZTA): competition of AAZTA with NTA for Bi^3+ by UV-spectrophotometry; type: physicochemical; conditions: 0.15 M NaClO4
Method: The stability constant of Bi(AAZTA) was determined by following the competition reaction of AAZTA with NTA for Bi^3+ (Eq. (10)) with UV-spectrophotometry in the wavelength range of 210-350 nm. The concentration of Bi^3+ and NTA was 30.2 μM and 10 mM while that of the AAZTA was varied between 0 and 50 μM (6×2 mL samples with the addition of AAZTA to the pre-prepared Bi(NTA)2 complex) in 0.15 M NaClO4 solution. The pH was adjusted to pH=7.4 by stepwise addition of concentrated NaOH or HClO4. The samples were kept at 50° C. for a week and at 25° C. for two weeks in order to attain the equilibrium (the time needed to reach the equilibria was determined by spectrophotometry). The spectrophotometric measurements were made with the use of PerkinElmer Lambda 365 UV-Vis spectrophotometer at 25° C., using 1.0 cm cells. For the equilibrium calculation, the protonation constants of AAZTA and NTA ligands (AAZTA: log K1^H=10.29, log K2^H=6.51, log K3^H=3.86, log K4^H=1.94, log K5^H=1.00; NTA: log K1^H=9.22, log K2^H=2.98, log K3^H=1.06; 25° C., 0.15 M NaClO4) and the stability constants of Bi(NTA) and Bi(NTA)2 complexes (log KBi(NTA)=16.97, log βBi(NTA)2=26.21, 25° C., 0.15 M NaClO4) have been determined as it is described in the literature (Baranyai, Eur. J. Inorg. Chem., 2013, 147-162, KARADAKOV, Talanta, 1970, 17, 883-887). The equilibrium constants were calculated with the program PSEQUAD (L. Zekany and I. Nagypal in PSEQUAD, Vol. (Ed. D. Leggett), Springer US, 1985, pp. 291-353). Bi(NTA)2+HxAAZTA ? Bi(AAZTA)+2HyNTA (10) Thermodynamic stability constant of Bi(AAZTA) calculated from the UV-spectrophotometric studies of Bi^3+-NTA-AAZTA systems is log KBi(AAZTA)=26.45 (6) at 25° C. in 0.15 M NaClO4. By taking into account the protonation constant of AAZTA ligand (log K1^H=10.29, log K2^H=6.51, log K3^H=3.86, log K4^H=1.94, log K5^H=1.00, 25° C., 0.15 M NaClO4) and the stability constant of Bi(AAZTA) (log KBi(AAZTA)=26.45, 25° C. in 0.15 M NaClO4), the conditional stability constant of Bi(AAZTA) was calculated to be log K^condBi(AAZTA)=log KBi(AAZTA)/(1+αH)=23.5 at pH=7.4 and 25° C. in 0.15 M NaClO4 (αH=K1^H[H^+]+K1^HK2^H[H^+]^2+ . . . +K1^HK2^H . . . Kn^H[H^+]^n and K1^H, K2^H, . . . Kn^H are the protonation constant of the free ligand at pH=7.4 in 0.15 M NaClO4 solution).

[2] = 0.15 M NaCl, 25° C.; cited from earlier work
[3] = Transchelation reaction between Bi(AAZTA) and DTPA by UV-spectrophotometry; type: physicochemical; conditions: pH=9.0, 25° C., 0.15 M NaClO4
Method: The kinertic properties of Bi(AAZTA) was determined by following the transchelation reaction between Bi(AAZTA) and DTPA with UV-spectrophotometry at 278 nm and 25° C. in 0.15 M NaClO4 solution (stability constant of Bi(DTPA) is log KBi(DTPA)=29.3 at 25° C. in 0.6 M NaClO4, V. Kornev, A. Troubachev, Russ. J. Inorg. Chem, 1987, 32, 1419). In these experiments the concentration of Bi(AAZTA) was 0.1 mM while DTPA was applied in 10 and 20 fold excess to ensure the occurrence of pseudo-first order conditions. The pH was adjusted to 8.5, 9.0, 9.5, 10.0, 10.5 and 11.0 by stepwise addition of concentrated NaOH or HClO4. For keeping the pH values constant 0.01 M N-methyl-piperazine (pH≤10) buffers were used. At pH>10, buffer was not used to keep the constant pH due to the presence of OH^− in a high concentration. The pseudo-first-order rate constants (kd) were calculated by fitting the absorbance—time data sets for Bi(AAZTA)—DTPA system to Eq. (9). The dissociation rates (kd) of Bi(AAZTA) complex is independent from the [DTPA] and increase with the increase of pH.

[4] = type: physicochemical; conditions: 25° C., 0.15 M NaCl
Source text: The thermodynamic properties of Sc(AAZTA-TATE) complex were characterized by the conditional stability constant (log K^cond=log K^therm/(1+αH) where αH=K1^H[H^+]+K1^HK2^H[H^+]^2+ . . . +K1^HK2^H . . . Kn^H[H^+]^n and K1^H, K2^H, . . . Kn^H are the protonation constant of the free ligand) at pH=7.4 in 0.15 M NaCl solution. To determine the log K^cond value of Sc(AAZTA-TATE) complex, the competition reaction of AAZTA-TATE with NTA for Sc^3+ have been studied by ^45Sc NMR spectroscopy (Bruker Avance III 400 spectrometer at 9.4 T) with the integral of Sc(NTA)2 complex (δSc=59.9 ppm) formed in the reactions (Eq. (4), H3NTA=nitrilo-triacetic acid, pH=7.4, 25° C., 0.15 M NaCl).
[formula] For the equilibrium characterization of Sc(AAZTA-TATE), 7 samples were prepared in which the concentration of Sc^3+ and AAZTA-TATE was 203.3 μM and 206.2 μM, while that of the NTA was varied between 0.0 and 20.06 mM (7×1 mL samples were prepared by the addition of AAZTA-TATE to the pre-prepared Sc(NTA)2 complex) in 0.15 M NaCl solution. […] The samples were kept at 25° C. for 8 weeks in order to attain the equilibrium (the time needed to reach the equilibria was determined by ^45Sc NMR spectroscopy).
To compare the equilibrium properties of Sc(AAZTA-TATE) with that of Sc(AAZTA), the conditional stability constant of Sc(AAZTA) was determined by following the competition reaction of AAZTA with NTA for Sc^3+ with ^45Sc NMR spectroscopy by using the integral of Sc(NTA)2 complex (δSc=59.9 ppm) formed in the reactions (Eq. (5), pH=7.4, 25° C., 0.15 M NaCl).
For the equilibrium characterization of Sc(AAZTA), 7 samples were prepared in which the concentration of Sc^3+ and AAZTA was 203.3 μM and 207.1 μM, while that of the NTA was varied between 0 and 20.06 mM (7×2 mL samples with the addition of AAZTA to the pre-prepared […] complex) in 0.15 M NaCl solution. […] The samples were kept at 25° C. for 8 weeks in order to attain the equilibrium (the time needed to reach the equilibria was determined by ^45Sc NMR spectroscopy). […]

- log K1^H (protonation constant) ([1]; 25° C.): 10.29
- log K2^H (protonation constant) ([1]; 25° C.): 6.51
- log K3^H (protonation constant) ([1]; 25° C.): 3.86
- log K4^H (protonation constant) ([1]; 25° C.): 1.94
- log K5^H (protonation constant) ([1]; 25° C.): 1.00
Compound: CC1(N(CC(=O)O)CC(=O)O)CN(CC(=O)O)CCN(CC(=O)O)C1 [AAZTA, 6-amino-6-methylperhydro-1,4-diazepinetetraacetic acid]
- log K1^H (protonation constant) [2]: 9.98
- log K2^H (protonation constant) [2]: 6.52
- log K3^H (protonation constant) [2]: 3.76
- log K4^H (protonation constant) [2]: 2.21

- log KBi(AAZTA) (thermodynamic stability constant) ([1]; 25° C.): 26.45 (6)
- log K^cond (conditional stability constant) ([1]; pH=7.4, 25° C.): 23.5
Compound: CC1(N(CC(=O)[O-])CC(=O)[O-])CN(CC(=O)[O-])CCN(CC(=O)[O-])C1.[Bi+3] [Bi(AAZTA)]
- kd (rate constant of dissociation) [3]: 1.67e-06 s⁻¹

- log K1^H (protonation constant) [4]: 9.13 (1)
- log K2^H (protonation constant) [4]: 2.63 (2)
- log K3^H (protonation constant) [4]: 1.64 (3)
- log K1^H (protonation constant) ([1]; NTA ligand, 25° C.): 9.22
- log K2^H (protonation constant) ([1]; NTA ligand, 25° C.): 2.98
- log K3^H (protonation constant) ([1]; NTA ligand, 25° C.): 1.06
Compound: O=C(O)CN(CC(=O)O)CC(=O)O [NTA, nitrilo-triacetic acid, reference compound]
